Data on 21 compounds can be found in publication PMC6713143, “Design, synthesis and biological activity of selective hCAs inhibitors based on 2-(benzylsulfinyl)benzoic acid scaffold” (Journal of Enzyme Inhibition and Medicinal Chemistry, 2019).

What all share (type): biochemical
Common to all, as to conditions: mean from three determinations, errors 5–10%

For assay [1], the target named is T1, hCA II (Homo sapiens, UniProt P00918).
T1 construct: made in house
Put plainly: stopped-flow CO2 hydrase assay, hCA II. As for the experimental part:
(§1) An Applied Photophysics stopped-flow instrument has been used for assaying the CA catalysed CO2 hydration activity. […] The CO2 concentrations ranged from 1.7 to 17 mM for the determination of the kinetic parameters and inhibition constants. In particular, CO2 was bubbled in distilled deionised water for 30 min till saturation. A CO2 kit (Sigma, Milan, Italy) was used to measure the concentration in serially diluted solutions from the saturated one at the same temperature. […] The uncatalyzed rates were determined in the same manner and subtracted from the total observed rates. Stock solutions of inhibitor (1 µM) were prepared in distilled-deionised water and dilutions up to 0.1 nM were done thereafter with the assay buffer. […] The inhibition constants were obtained by non-linear least-squares methods using PRISM 3 and the Cheng-Prusoff equation[29], and represent the average from at least three different determinations. All recombinant CA isoforms were obtained in-house as previously reported[30]^,[31].

The target of assay [2] is T2, hCA I (Homo sapiens, UniProt P00915).
T2 construct: made in house
In words: stopped-flow CO2 hydrase assay, hCA I. As for the experimental part:
as §1

Assay [3] addresses T3, hCA IX (Homo sapiens, UniProt Q16790).
T3 construct: made in house
In words: stopped-flow CO2 hydrase assay, hCA IX. How it is done:
as §1

T2 sequence (P00915 whole entry): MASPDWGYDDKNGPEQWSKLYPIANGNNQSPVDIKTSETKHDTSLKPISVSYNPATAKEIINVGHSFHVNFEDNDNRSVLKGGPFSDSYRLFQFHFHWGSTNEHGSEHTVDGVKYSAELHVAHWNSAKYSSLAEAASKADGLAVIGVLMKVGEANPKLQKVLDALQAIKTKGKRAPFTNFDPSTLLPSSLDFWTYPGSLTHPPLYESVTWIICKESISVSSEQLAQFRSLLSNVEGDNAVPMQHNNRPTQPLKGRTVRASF

Turning to `COC(=O)c1ccccc1SCC(=O)c1ccccc1` [Compound 13], the inhibition constant (Ki) in assay [1], in assay [2] and in assay [3] was above 100 µM throughout.

In the case of `O=C(O)c1ccccc1S(=O)(=O)Cc1ccccc1` [Compound 6], the figures for the Ki in assay [1], in assay [2] and in assay [3] were above 100 µM, above 100 µM and 2.3 µM, respectively.

As to `CNC(=O)c1ccccc1SCc1ccccc1` [Compound 19], the values for the Ki in assay [1], in assay [2] and in assay [3] were 86.3 µM, above 100 µM and 19.8 µM, respectively.

Turning to `CNC(=O)c1ccccc1[S@@+]([O-])Cc1ccccc1` [(S)-20], the inhibition constant (Ki) in assay [1] is 38.9 µM; in assay [2], above 100 µM; in assay [3], 24.6 µM.

With `O=C(O)c1ccccc1[S@@+]([O-])Cc1ccccc1` [(S)-5], the values for the Ki in assay [1], in assay [2] and in assay [3] were 0.093 µM, above 100 µM and 1.2 µM, respectively.

In the case of `CC(=O)c1ccccc1SCc1ccccc1` [Compound 1], the values for the Ki in assay [1], in assay [2] and in assay [3] were above 100 µM, above 100 µM and 1.1 µM, respectively.

Turning to `CNC(=O)c1ccccc1[S@+]([O-])Cc1ccccc1` [(R)-20], the figures for the Ki in assay [1], in assay [2] and in assay [3] were 52.2 µM, above 100 µM and 22.8 µM, respectively.

In the case of `COC(=O)c1ccccc1[S@+]([O-])Cc1ccccc1` [(R)-8], the values for the Ki in assay [1], in assay [2] and in assay [3] were 84.9 µM, above 100 µM and 15.3 µM, respectively.

On to `CCCC[S+]([O-])c1ccccc1C(=O)OC` (stereo not drawn) [Compound 22], for which, in assay [1], the inhibition constant (Ki) was above 100 µM and the “Ki hCA II” value is “inactive”. For the same compound, in assay [2], the inhibition constant (Ki) was above 100 µM and the “Ki hCA I” value was “inactive”. Moreover, in assay [3], the inhibition constant (Ki) is above 100 µM and the “Ki hCA IX” value is “inactive”.

Take `NC(=O)c1ccccc1[S@@+]([O-])Cc1ccccc1` [(S)-17]: the inhibition constant Ki in assay [1] is 51.9 µM; in assay [2] it was above 100 µM; in assay [3], 1.9 µM.

On to `COC(=O)c1ccccc1[S@@+]([O-])Cc1ccccc1` [(S)-8], for which the Ki in assay [1] is 65.7 µM; in assay [2] it was above 100 µM; in assay [3], 20 µM.

On to `CNC(=O)c1ccccc1S(=O)(=O)Cc1ccccc1` [Compound 21], for which the inhibitory constant (Ki) is 68.2 µM in assay [1], above 100 µM in assay [2] and 25.8 µM in assay [3].

For the compound `CC(=O)c1ccccc1S(=O)(=O)Cc1ccccc1` [Compound 3], the Ki in assay [1] was above 100 µM; in assay [2], above 100 µM; in assay [3], 16.4 µM.

Regarding `CC(=O)c1ccccc1[S+]([O-])Cc1ccccc1` (stereo not drawn) [Compound 2], the Ki is 63.2 µM in assay [1], above 100 µM in assay [2] and 2 µM in assay [3].

As for `COC(=O)c1ccccc1SCc1ccc(Cl)cc1` [Compound 10], the values for the Ki in assay [1], in assay [2] and in assay [3] were 45.7 µM, above 100 µM and 1 µM, respectively.

With `COC(=O)c1ccccc1[S+]([O-])CC(=O)c1ccccc1` (stereo not drawn) [Compound 14], the Ki in assay [1], in assay [2] and in assay [3] was above 100 µM each time.

Turning to `COC(=O)c1ccccc1S(=O)(=O)Cc1ccc(Cl)cc1` [Compound 12], the Ki is 40.1 µM in assay [1], above 100 µM in assay [2] and 21.1 µM in assay [3].

As to `COC(=O)c1ccccc1[S@@+]([O-])Cc1ccc(Cl)cc1` [(S)-11], the Ki in assay [1] is above 100 µM; in assay [2], above 100 µM; in assay [3], 18.1 µM.

For `COC(=O)c1ccccc1S(=O)(=O)Cc1ccccc1` [Compound 9], the Ki is above 100 µM in assay [1], above 100 µM in assay [2] and 11.4 µM in assay [3].

For the compound `CCCCC[S+]([O-])c1ccccc1C(=O)OC` (stereo not drawn) [Compound 23], in assay [1], the inhibitory constant (Ki) was above 100 µM and the “Ki hCA II” value was “inactive”. Also, in assay [2], the Ki is above 100 µM and the “Ki hCA I” value was “inactive”. Also, in assay [3], the inhibition constant (Ki) is above 100 µM and the “Ki hCA IX” value is “inactive”.

As for `NC(=O)c1ccccc1[S@+]([O-])Cc1ccccc1` [(R)-17], the values for the Ki in assay [1], in assay [2] and in assay [3] were 52.2 µM, above 100 µM and 2.2 µM, respectively.
